Data from patent US12479847B2 (DANA-FARBER CANCER INSTITUTE, INC., priority 2019, dated 2025).

Experiments:
Assay in all cases: KINOMEscan (ScanMAX) kinase profiling
Format in all cases: binding
[1] = biological target: T1, panel of 468 kinases (Homo sapiens, UniProt O15264); conditions: p38-delta; 1 μM; read-out: % control
T1 construct: purchased KINOMEscan (ScanMAX) service
T1 sequence (O15264 1-365): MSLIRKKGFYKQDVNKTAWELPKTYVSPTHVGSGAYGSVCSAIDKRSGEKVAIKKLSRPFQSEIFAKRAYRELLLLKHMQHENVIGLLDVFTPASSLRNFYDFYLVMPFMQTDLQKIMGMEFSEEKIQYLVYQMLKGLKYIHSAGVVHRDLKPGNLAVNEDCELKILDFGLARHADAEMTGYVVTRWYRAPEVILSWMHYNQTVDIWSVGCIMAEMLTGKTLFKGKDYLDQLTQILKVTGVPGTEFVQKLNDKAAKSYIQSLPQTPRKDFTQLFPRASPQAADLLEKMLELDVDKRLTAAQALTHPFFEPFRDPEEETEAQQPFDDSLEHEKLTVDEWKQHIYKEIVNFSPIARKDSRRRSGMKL

[2] = biological target: T2, panel of 468 kinases (Homo sapiens, UniProt P07949); conditions: RET; 1 μM; read-out: % control
T2 construct: purchased KINOMEscan (ScanMAX) service
T2 sequence (P07949 29-1114): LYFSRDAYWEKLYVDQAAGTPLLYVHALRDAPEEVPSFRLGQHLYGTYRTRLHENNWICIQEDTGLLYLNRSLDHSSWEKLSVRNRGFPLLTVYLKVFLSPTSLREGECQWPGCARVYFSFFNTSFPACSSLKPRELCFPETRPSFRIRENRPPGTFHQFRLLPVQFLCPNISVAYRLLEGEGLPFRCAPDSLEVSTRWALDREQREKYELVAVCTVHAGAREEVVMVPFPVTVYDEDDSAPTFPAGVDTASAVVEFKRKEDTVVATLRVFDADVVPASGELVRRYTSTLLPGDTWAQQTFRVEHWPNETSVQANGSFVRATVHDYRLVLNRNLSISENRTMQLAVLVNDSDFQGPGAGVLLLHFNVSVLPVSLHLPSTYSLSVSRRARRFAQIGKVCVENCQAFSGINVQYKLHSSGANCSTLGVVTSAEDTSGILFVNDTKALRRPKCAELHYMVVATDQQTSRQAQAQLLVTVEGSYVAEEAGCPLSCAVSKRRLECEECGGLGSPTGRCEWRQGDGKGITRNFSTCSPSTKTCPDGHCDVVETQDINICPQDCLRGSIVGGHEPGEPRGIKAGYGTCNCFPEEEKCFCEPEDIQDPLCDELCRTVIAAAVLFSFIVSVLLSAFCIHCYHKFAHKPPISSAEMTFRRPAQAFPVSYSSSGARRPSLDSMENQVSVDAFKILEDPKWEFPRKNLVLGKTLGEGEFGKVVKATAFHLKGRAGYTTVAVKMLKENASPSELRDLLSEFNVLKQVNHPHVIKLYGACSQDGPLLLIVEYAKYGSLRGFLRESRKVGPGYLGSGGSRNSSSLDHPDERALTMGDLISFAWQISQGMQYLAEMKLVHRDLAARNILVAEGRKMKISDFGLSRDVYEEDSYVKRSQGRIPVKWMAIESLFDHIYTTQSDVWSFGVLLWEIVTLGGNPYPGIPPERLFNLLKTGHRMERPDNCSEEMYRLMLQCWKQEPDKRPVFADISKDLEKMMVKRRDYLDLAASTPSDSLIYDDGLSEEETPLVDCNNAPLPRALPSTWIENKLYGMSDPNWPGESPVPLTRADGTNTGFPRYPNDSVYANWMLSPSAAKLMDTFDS

[3] = biological target: T3, panel of 468 kinases (Homo sapiens, UniProt P51617); conditions: IRAK1; 1 μM; read-out: % control
T3 construct: purchased KINOMEscan (ScanMAX) service
T3 sequence (P51617 whole entry): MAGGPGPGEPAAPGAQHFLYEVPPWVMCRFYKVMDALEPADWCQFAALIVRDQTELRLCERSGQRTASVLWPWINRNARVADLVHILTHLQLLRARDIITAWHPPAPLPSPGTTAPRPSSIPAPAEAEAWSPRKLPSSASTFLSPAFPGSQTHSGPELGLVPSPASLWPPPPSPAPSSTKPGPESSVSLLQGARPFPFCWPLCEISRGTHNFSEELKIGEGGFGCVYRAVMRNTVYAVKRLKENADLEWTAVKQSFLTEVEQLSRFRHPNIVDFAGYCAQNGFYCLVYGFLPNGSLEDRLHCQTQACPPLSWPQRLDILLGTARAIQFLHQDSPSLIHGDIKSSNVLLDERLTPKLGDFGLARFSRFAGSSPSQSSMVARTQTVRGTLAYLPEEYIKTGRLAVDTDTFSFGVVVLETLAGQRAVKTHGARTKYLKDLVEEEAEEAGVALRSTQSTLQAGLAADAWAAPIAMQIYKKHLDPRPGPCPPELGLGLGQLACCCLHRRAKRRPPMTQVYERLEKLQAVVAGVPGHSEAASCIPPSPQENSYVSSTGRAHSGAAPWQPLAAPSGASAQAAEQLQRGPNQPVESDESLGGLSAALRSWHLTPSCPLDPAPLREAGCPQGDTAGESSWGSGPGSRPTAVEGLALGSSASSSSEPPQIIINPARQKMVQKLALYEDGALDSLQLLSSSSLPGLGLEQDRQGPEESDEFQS

[4] = biological target: T4, panel of 468 kinases (Homo sapiens, UniProt Q7L7X3); conditions: TAOK1; 1 μM; read-out: % control
T4 construct: purchased KINOMEscan (ScanMAX) service
T4 sequence (Q7L7X3 1-1001): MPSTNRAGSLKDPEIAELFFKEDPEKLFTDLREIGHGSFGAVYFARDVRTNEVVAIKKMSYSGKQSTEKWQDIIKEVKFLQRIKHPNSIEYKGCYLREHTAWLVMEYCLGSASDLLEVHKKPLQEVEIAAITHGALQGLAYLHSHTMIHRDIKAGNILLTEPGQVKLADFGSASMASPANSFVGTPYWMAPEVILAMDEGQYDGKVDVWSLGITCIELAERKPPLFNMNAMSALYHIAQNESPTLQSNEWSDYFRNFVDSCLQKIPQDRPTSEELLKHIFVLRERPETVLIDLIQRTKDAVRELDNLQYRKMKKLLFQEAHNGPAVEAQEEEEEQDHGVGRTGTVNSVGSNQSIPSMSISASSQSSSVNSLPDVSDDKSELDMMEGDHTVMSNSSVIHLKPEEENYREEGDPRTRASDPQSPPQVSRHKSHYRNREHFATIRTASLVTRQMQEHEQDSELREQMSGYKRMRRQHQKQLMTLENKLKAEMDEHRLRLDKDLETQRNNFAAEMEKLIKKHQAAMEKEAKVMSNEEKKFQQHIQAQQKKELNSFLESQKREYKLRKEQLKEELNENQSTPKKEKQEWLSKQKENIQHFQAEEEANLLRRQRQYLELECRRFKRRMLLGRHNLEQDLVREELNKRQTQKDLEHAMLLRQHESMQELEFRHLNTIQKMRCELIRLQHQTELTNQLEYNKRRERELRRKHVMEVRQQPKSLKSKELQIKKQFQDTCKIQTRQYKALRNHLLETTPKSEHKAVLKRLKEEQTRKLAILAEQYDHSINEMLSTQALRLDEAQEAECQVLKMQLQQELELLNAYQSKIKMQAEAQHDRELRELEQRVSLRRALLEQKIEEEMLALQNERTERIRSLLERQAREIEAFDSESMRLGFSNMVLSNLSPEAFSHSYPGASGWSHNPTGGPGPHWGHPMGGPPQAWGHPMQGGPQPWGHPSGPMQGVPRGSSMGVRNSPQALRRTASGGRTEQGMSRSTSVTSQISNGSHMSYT

[5] = biological target: T5, panel of 468 kinases (Homo sapiens, UniProt Q8TDX7); conditions: NEK7; 1 μM; read-out: % control
T5 construct: purchased KINOMEscan (ScanMAX) service
T5 sequence (Q8TDX7 whole entry): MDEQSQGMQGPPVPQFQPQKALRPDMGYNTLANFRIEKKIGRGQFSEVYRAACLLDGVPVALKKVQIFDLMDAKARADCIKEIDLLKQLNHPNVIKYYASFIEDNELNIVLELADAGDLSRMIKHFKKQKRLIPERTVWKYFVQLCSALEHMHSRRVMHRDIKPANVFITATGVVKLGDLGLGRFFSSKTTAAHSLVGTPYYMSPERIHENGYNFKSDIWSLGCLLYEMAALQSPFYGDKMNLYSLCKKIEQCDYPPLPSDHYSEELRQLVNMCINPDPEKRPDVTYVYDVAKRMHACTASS

[6] = biological target: T6, panel of 468 kinases (Homo sapiens, UniProt Q9UHD2); conditions: TBK1; 1 μM; read-out: % control
T6 construct: purchased KINOMEscan (ScanMAX) service
T6 sequence (Q9UHD2 1-729): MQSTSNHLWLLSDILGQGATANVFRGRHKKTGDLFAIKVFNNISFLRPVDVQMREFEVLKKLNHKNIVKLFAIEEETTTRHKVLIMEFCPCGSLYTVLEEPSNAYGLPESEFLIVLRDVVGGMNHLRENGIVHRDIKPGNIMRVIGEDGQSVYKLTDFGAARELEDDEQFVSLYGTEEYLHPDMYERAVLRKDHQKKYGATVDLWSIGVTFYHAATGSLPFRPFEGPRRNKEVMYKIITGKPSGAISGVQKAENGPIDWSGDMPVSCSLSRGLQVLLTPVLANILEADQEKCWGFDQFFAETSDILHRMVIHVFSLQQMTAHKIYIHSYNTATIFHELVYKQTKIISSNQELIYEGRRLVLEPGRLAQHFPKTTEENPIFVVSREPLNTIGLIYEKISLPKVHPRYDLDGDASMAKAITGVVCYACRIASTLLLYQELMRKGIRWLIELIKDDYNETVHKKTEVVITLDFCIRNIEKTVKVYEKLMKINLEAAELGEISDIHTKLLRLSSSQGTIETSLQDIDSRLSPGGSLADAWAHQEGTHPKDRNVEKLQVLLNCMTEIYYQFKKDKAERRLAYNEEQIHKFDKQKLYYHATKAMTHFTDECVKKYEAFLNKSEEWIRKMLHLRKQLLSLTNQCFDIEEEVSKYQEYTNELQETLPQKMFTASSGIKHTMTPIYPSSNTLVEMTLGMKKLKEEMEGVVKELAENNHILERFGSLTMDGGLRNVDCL

Structure (SMILES)	remaining binding at 1 µM [1] [%]	remaining binding at 1 µM [2] [%]	remaining binding at 1 µM [3] [%]	remaining binding at 1 µM [4] [%]	remaining binding at 1 µM [5] [%]	remaining binding at 1 µM [6] [%]
CNc1nc(Nc2ccc(C(=O)N3CCC(N4CCOCC4)CC3)c3c2OCO3)nc2[nH]cc(Cl)c12 [Compound 75, (7-((5-chloro-4-(methylamino)-7H-pyrrolo[2,3-d]pyrimidin-2-yl)amino)benzo[d][1,3]dioxol-4-yl)(4-morpholinopiperidin-1-yl)methanone]	100	100	51	81	99	34
CNc1nc(Nc2ccc(S(=O)(=O)N3CCC(N4CCOCC4)CC3)cc2OC)nc2[nH]cc(Cl)c12 [Compound 12, 5-chloro-N2-(2-methoxy-4-((4-morpholinopiperidin-1-yl)sulfonyl)phenyl)-N4-methyl-7H-pyrrolo[2,3-d]pyrimidine-2,4-diamine]	100	100	92	81	100	95
CNc1nc(Nc2ccc(P3(=O)CCN(C4CCOCC4)CC3)cc2OC)nc2[nH]cc(Cl)c12 [Compound 77, 4-(4-((5-chloro-4-(methylamino)-7H-pyrrolo[2,3-d]pyrimidin-2-yl)amino)-3-methoxyphenyl)-1-(tetrahydro-2H-pyran-4-yl)-1,4-azaphosphinane 4-oxide]	100	100	88	82	100	85
